Measured values reported in patent publication US11739074B2, “Ras inhibitors” (Revolution Medicines, Inc., priority 2019, dated 2023).
pEC50, pIC50: −log10 of the molar value. Like-named read-outs stand apart in the source and are kept apart here.

Experiments:
[1] = molecular target: KRAS G12V (Homo sapiens, UniProt P01116+P62937, G12V); test: Ras-Raf disruption/FRET/MOA assay, KRAS G12V; format: biochemical
Text: (§1) Disruption of B-Raf Ras-Binding Domain (BRAF^RBD) Interaction with K-Ras by Compounds of the Invention (Also Called a FRET Assay or an MOA Assay)
(§2) Note—The following protocol describes a procedure for monitoring disruption of K-Ras G12C (GMP-PNP) binding to BRAF^RBD by a compound of the invention. This protocol may also be executed substituting other Ras proteins or nucleotides, such as K-Ras G12D and K-Ras G13D.
(§3) The purpose of this biochemical assay was to measure the ability of test compounds to facilitate ternary complex formation between a nucleotide-loaded K-Ras isoform and Cyclophilin A; the resulting ternary complex disrupts binding to a BRAF^RBD construct, inhibiting K-Ras signaling through a RAF effector.
(§4) In assay buffer containing 25 mM HEPES pH 7.3, 0.002% Tween20, 0.1% BSA, 100 mM NaCl and 5 mM MgCl2, tagless Cyclophilin A, His6-K-Ras-GMPPNP, and GST-BRAF^RBD were combined in a 384-well assay plate at final concentrations of 25 μM, 12.5 nM, and 50 nM, respectively. Compound was present in plate wells as a 10-point 3-fold dilution series starting at a final concentration of 30 μM. After incubation at 25° C. for 3 hours, a mixture of anti-His Eu-W1024 and anti-GST allophycocyanin was then added to assay sample wells at final concentrations of 10 nM and 50 nM, respectively, and the reaction incubated for an additional 1.5 hours. […] Compounds that facilitate disruption of a K-Ras:RAF complex were identified as those eliciting a decrease in the TR-FRET ratio relative to DMSO control wells.

[2] = molecular target: KRAS G13D (Homo sapiens, UniProt P01116+P62937, G13D); test: Ras-Raf disruption/FRET/MOA assay, KRAS G13D; format: biochemical
Chain of KRAS G13D (P01116 1-169 isoform P01116-2 G13D limits assumed): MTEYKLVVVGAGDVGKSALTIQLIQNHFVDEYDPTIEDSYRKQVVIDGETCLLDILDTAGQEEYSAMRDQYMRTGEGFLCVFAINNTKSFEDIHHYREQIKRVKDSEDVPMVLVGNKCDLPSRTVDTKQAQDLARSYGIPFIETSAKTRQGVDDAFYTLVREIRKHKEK
Chain of KRAS G13D (P62937 whole entry): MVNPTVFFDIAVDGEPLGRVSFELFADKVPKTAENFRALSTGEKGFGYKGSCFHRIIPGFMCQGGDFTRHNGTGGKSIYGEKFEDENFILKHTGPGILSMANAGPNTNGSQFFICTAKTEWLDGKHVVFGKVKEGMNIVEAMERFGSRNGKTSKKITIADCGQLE
Text: as §1, §2, §3, §4

[3] = molecular target: KRAS G12D (Homo sapiens, UniProt P01116+P62937, G12D); test: Ras-Raf disruption/FRET/MOA assay, KRAS G12D; format: biochemical
Chain of KRAS G12D (P01116 1-169 isoform P01116-2 G12D limits assumed): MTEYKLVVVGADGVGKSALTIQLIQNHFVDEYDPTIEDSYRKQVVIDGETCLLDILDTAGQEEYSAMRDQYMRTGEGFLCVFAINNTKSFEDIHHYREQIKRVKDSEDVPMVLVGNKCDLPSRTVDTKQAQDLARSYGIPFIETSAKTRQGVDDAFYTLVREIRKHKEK
Chain of KRAS G12D (P62937 whole entry): as the sequence (P62937 whole entry) above
Text: as §1, §2, §3, §4

[4] = test system: AsPC-1 (K-Ras G12D); test: CellTiter-Glo cell viability assay, AsPC-1; format: cell-based; settings: Homo sapiens, ASPC1, 120 h
Method in brief: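 Percent-of-DMSO luminescence values (CellTiter-Glo, day 5, plates equilibrated ~30 minutes at ambient temperature) were curve-fitted using a 4-parameter logistic equation; compounds had been added straight into wells containing the cells.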

[5] = test system: AsPC-1 (K-Ras G12D); test: Potency assay: pERK in AsPC-1 cells; format: cell-based; settings: Homo sapiens
[6] = molecular target: KRAS WT (Homo sapiens, UniProt P01116+P62937); test: Ras-Raf disruption/FRET/MOA assay, KRAS WT; format: biochemical
Chain of KRAS WT (P01116 1-169 isoform P01116-2 limits assumed): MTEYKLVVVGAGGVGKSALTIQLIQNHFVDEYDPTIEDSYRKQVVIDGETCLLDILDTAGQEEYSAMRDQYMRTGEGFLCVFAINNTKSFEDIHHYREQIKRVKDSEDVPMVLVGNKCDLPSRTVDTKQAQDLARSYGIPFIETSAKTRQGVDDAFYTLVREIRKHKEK
Chain of KRAS WT (P62937 whole entry): as the sequence (P62937 whole entry) above
Text: as §1, §2, §3, §4

[7] = molecular target: T1, NRAS G12C (Homo sapiens, UniProt P01111+P62937, G12C); test: Ras-Raf disruption/FRET/MOA assay, NRAS G12C; format: biochemical
T1 construct: His6
T1 sequence (P01111 whole entry G12C): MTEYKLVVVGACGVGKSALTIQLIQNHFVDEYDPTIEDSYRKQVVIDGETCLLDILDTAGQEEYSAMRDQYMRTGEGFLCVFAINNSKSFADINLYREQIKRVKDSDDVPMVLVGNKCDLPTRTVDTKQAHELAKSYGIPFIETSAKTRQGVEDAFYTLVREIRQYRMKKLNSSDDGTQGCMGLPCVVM
T1 sequence (P62937 whole entry): as the sequence (P62937 whole entry) above
Text: as §1, §2, §3, §4

[8] = molecular target: KRAS G12C (Homo sapiens, UniProt P01116+P62937, G12C); test: Ras-Raf disruption/FRET/MOA assay, KRAS G12C; format: biochemical
Chain of KRAS G12C (P01116 1-169 isoform P01116-2 G12C limits assumed): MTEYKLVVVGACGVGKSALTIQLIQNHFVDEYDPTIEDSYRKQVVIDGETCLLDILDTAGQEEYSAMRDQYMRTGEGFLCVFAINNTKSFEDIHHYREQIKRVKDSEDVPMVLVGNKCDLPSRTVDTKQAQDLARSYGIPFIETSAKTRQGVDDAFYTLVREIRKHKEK
Chain of KRAS G12C (P62937 whole entry): as the sequence (P62937 whole entry) above
Text: as §1, §2, §3, §4

[9] = molecular target: KRAS G13C (Homo sapiens, UniProt P01116+P62937, G13C); test: Ras-Raf disruption/FRET/MOA assay, KRAS G13C; format: biochemical
Chain of KRAS G13C (P01116 1-169 isoform P01116-2 G13C limits assumed): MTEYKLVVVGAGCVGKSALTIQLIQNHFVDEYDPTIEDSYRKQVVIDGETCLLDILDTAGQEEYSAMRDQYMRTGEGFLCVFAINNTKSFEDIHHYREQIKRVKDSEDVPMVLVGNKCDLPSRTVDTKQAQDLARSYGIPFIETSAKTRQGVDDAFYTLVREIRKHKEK
Chain of KRAS G13C (P62937 whole entry): as the sequence (P62937 whole entry) above
Text: as §1, §2, §3, §4

[10] = molecular target: KRAS G12S (Homo sapiens, UniProt P01116+P62937, G12S); test: Ras-Raf disruption/FRET/MOA assay, KRAS G12S; format: biochemical
Chain of KRAS G12S (P01116 1-169 isoform P01116-2 G12S limits assumed): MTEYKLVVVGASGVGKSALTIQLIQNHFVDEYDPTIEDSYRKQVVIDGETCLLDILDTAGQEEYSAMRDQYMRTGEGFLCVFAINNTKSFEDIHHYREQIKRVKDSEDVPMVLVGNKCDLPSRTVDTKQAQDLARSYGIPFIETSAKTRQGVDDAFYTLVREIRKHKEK
Chain of KRAS G12S (P62937 whole entry): as the sequence (P62937 whole entry) above
Text: as §1, §2, §3, §4

[11] = disruption of BRAF RBD binding, with Cyclophilin A, read-out: KRAS G12V FRET IC50
[12] = disruption of BRAF RBD binding, with Cyclophilin A, read-out: KRAS G13D FRET IC50
[13] = disruption of BRAF RBD binding, with Cyclophilin A, read-out: KRAS G12D FRET IC50
[14] = read-out: AsPC-1 Cell Viability IC50
[15] = ASPC1, read-out: pERK EC50 (AsPC-1 KRAS G12D)
[16] = disruption of BRAF RBD binding, with Cyclophilin A, read-out: KRAS WT FRET IC50
[17] = NRAS G12C, read-out: NRAS G12C FRET data IC50
[18] = disruption of BRAF RBD binding, with Cyclophilin A, read-out: KRAS G12C FRET IC50
[19] = disruption of BRAF RBD binding, with Cyclophilin A, read-out: KRAS G13C FRET IC50
[20] = disruption of BRAF RBD binding, with Cyclophilin A, read-out: KRAS G12S FRET IC50
[21] = AsPC-1, K-Ras G12D, 5-day treatment, read-out: AsPC-1 Cell Viability IC50
[22] = ASPC1, AsPC-1 cells, K-Ras G12D, read-out: pERK EC50 (AsPC-1 KRAS G12D)
[23] = read-out: AsPC-1 Cell Viability IC50, AsPC-1, K-Ras G12D, 5-day treatment
[24] = NRAS G12C FRET data IC50, NRAS G12C

Chain of KRAS G12V (P01116 1-169 isoform P01116-2 G12V limits assumed): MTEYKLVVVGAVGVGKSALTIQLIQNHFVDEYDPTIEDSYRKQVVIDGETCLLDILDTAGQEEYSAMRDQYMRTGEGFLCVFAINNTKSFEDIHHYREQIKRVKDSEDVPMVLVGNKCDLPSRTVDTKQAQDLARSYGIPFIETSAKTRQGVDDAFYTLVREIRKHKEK
Chain of KRAS G12V (P62937 whole entry, the tested form may be a part): as the sequence (P62937 whole entry) above

SMILES	pIC50 [1, 11]	pIC50 [2, 12]	pIC50 [3, 13]	pEC50 [5, 15]	pIC50 [6, 16]	pIC50 [7, 17]	pIC50 [8, 18]	pIC50 [9, 19]	pIC50 [10, 20]	pIC50 [4, 21]	pEC50 [5, 22]	also measured
CCn1c(-c2cnccc2COC)c2c3cc(ccc31)-c1cc(O)cc(c1)C[C@H](NC(=O)[C@H](C(C)C)N(C)C(=O)CN(C)C(=O)[C@@H]1[C@H](C)N1[S@@+]([O-])C(C)(C)C)C(=O)N1CCC[C@H](N1)C(=O)OCC(C)(C)C2 (stereo partly shown) [Compound 54]	6.00 to 7.00	6.00 to 7.00	6.00 to 7.00	> 5.30	7.00 to 8.00	7.00 to 8.00	7.00 to 8.00	7.00 to 8.00	7.00 to 8.00	–	–	pIC50 [4, 14]: 5.00 to 6.00
CCn1c(-c2cccnc2[C@H](C)OC)c2c3cc(ccc31)-c1cc(O)cc(c1)C[C@H](NC(=O)[C@H](C(C)C)N(C)C(=O)[C@@H]1CN(C(=O)[C@H]3CN3)C[C@@H]1C)C(=O)N1CCC[C@H](N1)C(=O)OCC(C)(C)C2 [Compound 88]	7.00 to 8.00	7.00 to 8.00	7.00 to 8.00	–	7.00 to 8.00	> 8.00	> 8.00	7.00 to 8.00	7.00 to 8.00	6.00 to 7.00	> 5.30	–
CCn1c(-c2cnccc2COC)c2c3cc(ccc31)-c1cc(O)cc(c1)C[C@H](NC(=O)[C@H](C(C)C)N(C)C(=O)[C@H]1CCN(C(=O)N3C[C@@H]3C(=O)OC)C1)C(=O)N1CCC[C@H](N1)C(=O)OCC(C)(C)C2 [Compound 94]	6.00 to 7.00	6.00 to 7.00	5.00 to 6.00	–	6.00 to 7.00	6.00 to 7.00	7.00 to 8.00	7.00 to 8.00	6.00 to 7.00	< 5.00	> 5.30	–
CCn1c(-c2cnccc2COC)c2c3cc(ccc31)-c1cc(O)cc(c1)C[C@H](NC(=O)[C@H](C(C)C)N(C)C(=O)CN(C)C(=O)[C@@H]1[C@H](C3CC3)N1[S@@+]([O-])C(C)(C)C)C(=O)N1CCC[C@H](N1)C(=O)OCC(C)(C)C2 (stereo partly shown) [Compound 101]	6.00 to 7.00	6.00 to 7.00	6.00 to 7.00	> 5.30	6.00 to 7.00	7.00 to 8.00	7.00 to 8.00	6.00 to 7.00	6.00 to 7.00	–	–	pIC50 [4, 14]: 5.00 to 6.00
CCn1c(-c2cnccc2COC)c2c3cc(ccc31)-c1cc(O)cc(c1)C[C@H](NC(=O)[C@H](C(C)C)N(C)C(=O)CN(C)C(=O)[C@@H]1N[C@@H]1c1ccccc1)C(=O)N1CCC[C@H](N1)C(=O)OCC(C)(C)C2 [Compound 110]	–	–	–	> 5.30	–	–	–	–	–	–	–	pIC50 [1]: 6.00 to 7.00; pIC50 [2]: 6.00 to 7.00; pIC50 [3]: 6.00 to 7.00; pIC50 [4, 23]: 5.00 to 6.00; pIC50 [6]: 7.00 to 8.00; pIC50 [7, 24]: 7.00 to 8.00; pIC50 [8]: 7.00 to 8.00; pIC50 [9]: 6.00 to 7.00; pIC50 [10]: 7.00 to 8.00
CCn1c(-c2cccnc2[C@H](C)OC)c2c3cc(ccc31)-c1cc(O)cc(c1)C[C@H](NC(=O)[C@H](C(C)C)N(C)C(=O)CN(C)C(=O)[C@H]1N[C@H]1C1CC1)C(=O)N1CCC[C@H](N1)C(=O)OCC(C)(C)C2 [Compound 134]	–	–	–	> 5.30	–	–	–	–	–	–	–	pIC50 [1]: 6.00 to 7.00; pIC50 [2]: 6.00 to 7.00; pIC50 [3]: 6.00 to 7.00; pIC50 [4, 23]: 5.00 to 6.00; pIC50 [6]: 7.00 to 8.00; pIC50 [7, 24]: 7.00 to 8.00; pIC50 [8]: 7.00 to 8.00; pIC50 [9]: 7.00 to 8.00; pIC50 [10]: 7.00 to 8.00
CCn1c(-c2cccnc2[C@H](C)OC)c2c3cc(ccc31)-c1cc(O)cc(c1)C[C@H](NC(=O)[C@H](C(C)C)N1CC[C@]3(CCN(C[C@@H]4CN4)C3)C1=O)C(=O)N1CCC[C@H](N1)C(=O)OCC(C)(C)C2 [Compound 176]	6.00 to 7.00	7.00 to 8.00	6.00 to 7.00	–	7.00 to 8.00	7.00 to 8.00	7.00 to 8.00	7.00 to 8.00	7.00 to 8.00	5.00 to 6.00	> 5.30	–
CCn1c(-c2cccnc2[C@H](C)OC)c2c3cc(ccc31)-c1cc(O)cc(c1)C[C@H](NC(=O)[C@H](C(C)C)N1CC[C@]3(CCCN(C(=O)[C@@H]4CN4)C3)C1=O)C(=O)N1CCC[C@H](N1)C(=O)OCC(C)(C)C2 [Compound 192]	7.00 to 8.00	5.00 to 6.00	6.00 to 7.00	–	6.00 to 7.00	> 8.00	> 8.00	6.00 to 7.00	6.00 to 7.00	5.00 to 6.00	> 5.30	–
CCn1c(-c2cccnc2[C@H](C)OC)c2c3cc(ccc31)-c1cc(O)cc(c1)C[C@H](NC(=O)[C@H](C(C)C)N1CC[C@@]3(CCN(C[C@H]4CN4)C3)C1=O)C(=O)N1CCC[C@H](N1)C(=O)OCC(C)(C)C2 [Compound 193]	5.00 to 6.00	7.00 to 8.00	6.00 to 7.00	–	7.00 to 8.00	7.00 to 8.00	7.00 to 8.00	7.00 to 8.00	6.00 to 7.00	5.00 to 6.00	> 5.30	–
CCn1c(-c2cccnc2[C@H](C)OC)c2c3cc(ccc31)-c1cc(O)cc(c1)C[C@H](NC(=O)[C@H](C(C)C)N1CCC3(CCN(C(=O)[C@H]4CN4)CC3)C1=O)C(=O)N1CCC[C@H](N1)C(=O)OCC(C)(C)C2 [Compound 196]	6.00 to 7.00	7.00 to 8.00	6.00 to 7.00	–	7.00 to 8.00	> 8.00	> 8.00	7.00 to 8.00	6.00 to 7.00	5.00 to 6.00	> 5.30	–
